In PubChem BioAssay AID1919013 (Molecular Pharmacology Branch, DTP, NCI, 2023):

Tested on: LG0703-F498-PDC complex spheroid growth
Test: Anticancer human tumor LG0703-F498-PDC patient-derived lung adenocarcinoma cell line growth inhibition [AhR]
Conditions: for IC50: curve of first compound; for viability, T/C: stronger effect = lower value
Method in brief: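 Spheroids combined tumor cells with HUVEC endothelial cells and human MSCs as stroma. AhR antagonists were paired with standard or investigational drugs, each dosed in half-log steps down from near clinical Cmax, or from 10 microM where Cmax was unknown.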

[1] = second compound 0.1 µM, first compound 0.00316 µM
[2] = second compound 0.1 µM, first compound 0.01 µM
[3] = second compound 0.1 µM, first compound 0.0316 µM
[4] = second compound 0.1 µM, first compound 0.1 µM
[5] = second compound 0.316 µM, first compound 0.00316 µM
[6] = second compound 0.316 µM, first compound 0.01 µM
[7] = second compound 0.316 µM, first compound 0.0316 µM
[8] = second compound 0.316 µM, first compound 0.1 µM
[9] = second compound 1 µM, first compound 0.00316 µM
[10] = second compound 1 µM, first compound 0.01 µM
[11] = second compound 1 µM, first compound 0.0316 µM
[12] = second compound 1 µM, first compound 0.1 µM
[13] = second compound 3.16 µM, first compound 0.00316 µM
[14] = second compound 3.16 µM, first compound 0.01 µM
[15] = second compound 3.16 µM, first compound 0.0316 µM
[16] = second compound 3.16 µM, first compound 0.1 µM
[17] = second compound 10 µM, first compound 0.00316 µM
[18] = second compound 10 µM, first compound 0.01 µM
[19] = second compound 10 µM, first compound 0.0316 µM
[20] = second compound 10 µM, first compound 0.1 µM
[21] = second compound 0.1 µM, first compound 0.316 µM
[22] = second compound 0.1 µM, first compound 1 µM
[23] = second compound 0.1 µM, first compound 3.16 µM
[24] = second compound 0.1 µM, first compound 10 µM
[25] = second compound 0.316 µM, first compound 0.316 µM
[26] = second compound 0.316 µM, first compound 1 µM
[27] = second compound 0.316 µM, first compound 3.16 µM
[28] = second compound 0.316 µM, first compound 10 µM
[29] = second compound 1 µM, first compound 0.316 µM
[30] = second compound 1 µM, first compound 1 µM
[31] = second compound 1 µM, first compound 3.16 µM
[32] = second compound 1 µM, first compound 10 µM
[33] = second compound 3.16 µM, first compound 0.316 µM
[34] = second compound 3.16 µM, first compound 1 µM
[35] = second compound 3.16 µM, first compound 3.16 µM
[36] = second compound 3.16 µM, first compound 10 µM
[37] = second compound 10 µM, first compound 0.316 µM
[38] = second compound 10 µM, first compound 1 µM
[39] = second compound 10 µM, first compound 3.16 µM
[40] = second compound 10 µM, first compound 10 µM
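Note: luminescence taken as a proxy for viable cell amount.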
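Throughout, for viability, T/C: percent of DMSO vehicle control where 100% means growth equal to vehicle.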

| SMILES | IC50 (second compound 0.1 µM) | IC50 (second compound 0.316 µM) | IC50 (second compound 1 µM) | IC50 (second compound 3.16 µM) | IC50 (second compound 10 µM) | viability, T/C [3] | viability, T/C [4] | viability, T/C [7] | viability, T/C [8] | viability, T/C [11] | viability, T/C [12] | viability, T/C [15] | viability, T/C [16] | viability, T/C [19] | viability, T/C [20] | viability, T/C [21] | viability, T/C [22] | viability, T/C [25] | viability, T/C [26] | viability, T/C [29] | also measured |
| --- | --- | --- | --- | --- | --- | --- | --- | --- | --- | --- | --- | --- | --- | --- | --- | --- | --- | --- | --- | --- | --- |
| CC[C@@]1(O)C(=O)OCc2c1cc1n(c2=O)Cc2cc3c(CN(C)C)c(O)ccc3nc2-1 + Cc1cncc(-c2nc(NCCc3c[nH]c4ccccc34)c3ncn(C(C)C)c3n2)c1 | > 100 nM | > 100 nM | > 100 nM | 29.8 nM | < 0.316 nM | 78.6% | 63.7% | 63.9% | 55.4% | 73% | 50.2% | 48% | 38.3% | 1.21% | 2.28% | – | – | – | – | – | viability, T/C (second compound 0.1 µM, first compound 0.000316 µM): 96.8%; viability, T/C (second compound 0.1 µM, first compound 0.001 µM): 99.7%; viability, T/C [1]: 100%; viability, T/C [2]: 89.2%; viability, T/C (second compound 0.316 µM, first compound 0.000316 µM): 93%; viability, T/C (second compound 0.316 µM, first compound 0.001 µM): 105%; viability, T/C [5]: 102%; viability, T/C [6]: 87.5%; viability, T/C (second compound 1 µM, first compound 0.000316 µM): 97.5%; viability, T/C (second compound 1 µM, first compound 0.001 µM): 101%; viability, T/C [9]: 101%; viability, T/C [10]: 90.6%; viability, T/C (second compound 3.16 µM, first compound 0.000316 µM): 56.9%; viability, T/C (second compound 3.16 µM, first compound 0.001 µM): 67.9%; viability, T/C [13]: 56.6%; viability, T/C [14]: 57.6%; viability, T/C (second compound 10 µM, first compound 0.000316 µM): 1.34%; viability, T/C (second compound 10 µM, first compound 0.001 µM): 2.04%; viability, T/C [17]: 1.13%; viability, T/C [18]: 1.73% |
| COc1cc(C2c3cc4c(cc3C(OC3OC5COC(C)OC5C(O)C3O)C3COC(=O)C23)OCO4)cc(OC)c1O (stereo not given) + Cc1cncc(-c2nc(NCCc3c[nH]c4ccccc34)c3ncn(C(C)C)c3n2)c1 | > 10000 nM | > 10000 nM | > 10000 nM | 5510 nM | < 31.6 nM | 105% | 96.7% | 112% | 110% | 89.7% | 126% | 60.3% | 64.1% | 1.19% | 1.35% | 102% | 93.8% | 96.8% | 85.4% | 115% | viability, T/C [23]: 84.6%; viability, T/C [24]: 63.4%; viability, T/C [27]: 77.9%; viability, T/C [28]: 71.5%; viability, T/C [30]: 93.3%; viability, T/C [31]: 72.2%; viability, T/C [32]: 64.5%; viability, T/C [33]: 62.8%; viability, T/C [34]: 54.3%; viability, T/C [35]: 51.6%; viability, T/C [36]: 47.9%; viability, T/C [37]: 1.7%; viability, T/C [38]: 1.47%; viability, T/C [39]: 1.3%; viability, T/C [40]: 2.49% |
| COc1cccc2c1C(=O)c1c(O)c3c(c(O)c1C2=O)CC(O)(C(=O)CO)CC3OC1CC(N)C(O)C(C)O1 (stereo not given) + Cc1cncc(-c2nc(NCCc3c[nH]c4ccccc34)c3ncn(C(C)C)c3n2)c1 | 571 nM | 454 nM | 394 nM | < 31.6 nM | < 31.6 nM | 76.6% | 74.6% | 79% | 77.8% | 84.2% | 79.9% | 41.6% | 44.3% | 2.11% | 2.97% | 64% | 36.8% | 58.3% | 29.8% | 53.7% | viability, T/C [23]: 5.61%; viability, T/C [24]: 0.77%; viability, T/C [27]: 3.48%; viability, T/C [28]: 0.76%; viability, T/C [30]: 27.1%; viability, T/C [31]: 1.11%; viability, T/C [32]: 0.75%; viability, T/C [33]: 39.5%; viability, T/C [34]: 15.8%; viability, T/C [35]: 0.78%; viability, T/C [36]: 0.47%; viability, T/C [37]: 4.27%; viability, T/C [38]: 0.39%; viability, T/C [39]: 0.31%; viability, T/C [40]: 0.58% |
| Nc1ccn(C2OC(CO)C(O)C2(F)F)c(=O)n1 (stereo not given) + Cc1cncc(-c2nc(NCCc3c[nH]c4ccccc34)c3ncn(C(C)C)c3n2)c1 | < 31.6 nM | < 31.6 nM | < 31.6 nM | < 31.6 nM | < 31.6 nM | 40.6% | 36.2% | 39.7% | 37.6% | 33.5% | 40% | 24.4% | 26.7% | 0.88% | 1.65% | 31.3% | 28.9% | 35% | 28.1% | 32.2% | viability, T/C [23]: 28.2%; viability, T/C [24]: 18.8%; viability, T/C [27]: 26.4%; viability, T/C [28]: 17.9%; viability, T/C [30]: 28.8%; viability, T/C [31]: 24.1%; viability, T/C [32]: 19.9%; viability, T/C [33]: 29.4%; viability, T/C [34]: 19.5%; viability, T/C [35]: 18.1%; viability, T/C [36]: 17.9%; viability, T/C [37]: 1.55%; viability, T/C [38]: 1.08%; viability, T/C [39]: 1.14%; viability, T/C [40]: 1.93% |
| Nc1ncn(C2CC(O)C(CO)O2)c(=O)n1 (stereo not given) + Cc1cncc(-c2nc(NCCc3c[nH]c4ccccc34)c3ncn(C(C)C)c3n2)c1 | > 1000 nM | > 1000 nM | > 1000 nM | > 1000 nM | < 3.16 nM | 94.8% | 84.4% | 88% | 86.8% | 98.7% | 89.3% | 58.5% | 64.3% | 1.23% | 1.12% | 79.9% | 86.4% | 81.9% | 79.9% | 89.3% | viability, T/C [1]: 85.7%; viability, T/C [2]: 98%; viability, T/C [5]: 109%; viability, T/C [6]: 102%; viability, T/C [9]: 106%; viability, T/C [10]: 116%; viability, T/C [30]: 87.2%; viability, T/C [13]: 56%; viability, T/C [14]: 59.8%; viability, T/C [33]: 55.1%; viability, T/C [34]: 60%; viability, T/C [17]: 1.37%; viability, T/C [18]: 1.38%; viability, T/C [37]: 1.02%; viability, T/C [38]: 1.63% |
